IC50 data for three compounds are collected here from ChEMBL document CHEMBL5260836, “Combating Autoimmune Diseases With Retinoic Acid Receptor-Related Orphan Receptor-γ (RORγ or RORc) Inhibitors: Hits and Misses” (J Med Chem, 2018).

A value given as a limit tells only on which side of the number the result lay.

The target in assay [1] is T1, Nuclear receptor ROR-gamma (Homo sapiens, UniProt P51449).
T1 sequence (P51449 whole entry): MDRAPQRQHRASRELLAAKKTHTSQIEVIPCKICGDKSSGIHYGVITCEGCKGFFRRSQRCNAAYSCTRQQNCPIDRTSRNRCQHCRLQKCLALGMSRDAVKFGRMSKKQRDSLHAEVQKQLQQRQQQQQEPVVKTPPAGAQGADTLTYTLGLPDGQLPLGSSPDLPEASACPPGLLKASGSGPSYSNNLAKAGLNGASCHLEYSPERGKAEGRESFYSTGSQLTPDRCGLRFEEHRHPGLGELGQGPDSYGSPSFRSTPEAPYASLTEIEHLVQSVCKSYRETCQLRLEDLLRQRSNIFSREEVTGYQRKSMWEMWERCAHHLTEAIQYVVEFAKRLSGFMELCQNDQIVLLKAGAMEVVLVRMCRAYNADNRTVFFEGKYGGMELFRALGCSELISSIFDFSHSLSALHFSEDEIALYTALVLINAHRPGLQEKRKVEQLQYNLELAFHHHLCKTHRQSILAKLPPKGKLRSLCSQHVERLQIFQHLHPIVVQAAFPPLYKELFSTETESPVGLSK
Kind of assay: Inhibition of RORgammat LBD (unknown origin) expressed in Sf21 cells assessed as fluorescence signal by TR-FRET assay. (In general: In TR-FRET formats the signal depends on donor and acceptor labels being close together.)

The target in assay [2] is T1, Nuclear receptor ROR-gamma. Nature of the assay: Inhibition of GAL4-RORgammat LBD (unknown origin). It is filed as cell-based, HEK293.
Assay [3] has as its target T1, Nuclear receptor ROR-gamma. Kind of assay: Inhibition of biotinylated human RORgammat by FRET assay.
In assay [4] the target is T1, Nuclear receptor ROR-gamma. Nature of the assay: Inverse agonist activity at GAL4-RORgammat LBD (unknown origin) expressed in HEK293 cells measured after 18 to 24 hrs by nuclear receptor assay. It is filed as cell-based.

Regarding `COc1cc2c(cc1N1CCOCC1)CC(Cc1cccc(C(F)(F)F)c1)C2=O` (centres undefined), in assay [1], the IC50 is < 500 nM.

For `Cc1cc(C(F)(F)F)cc2c1cc(Cc1c(Cl)ccc(C(=O)N3CCN(C4COC4)CC3)c1Cl)n2C`, in assay [2], the IC50 is < 100 nM.

On to `Cc1ccc([C@H](NC(=O)Cc2ccc3oc([C@@H](O)c4c(C)noc4C)cc3c2)c2ccccc2)c(C)c1`, for which the figures for the 50% inhibitory concentration (IC50) in assay [3] and in assay [4] were 5 nM and 17 nM, respectively.

In general, IC50 refers to the concentration that inhibits the measured activity by half.
